# From patent US20220177508A1, “C10-Cyclic Substituted 13-Membered Macrolides and Uses Thereof” (Zikani Therapeutics, Inc., priority 2018, published 2022)
# Columns and labels:
# Format in all cases: cell-based
# S. aureus MP-12 = assay: Broth dilution MIC determination (CLSI), S. aureus MP-12; conditions: Staphylococcus aureus, MP12; strain MP-12, broth dilution
# E. coli MP-4 = assay: Broth dilution MIC determination (CLSI), E. coli MP-4; conditions: Escherichia coli, MP4; strain MP-4, broth dilution; read-out: MIC E. coli MP-4
# K. pneumoniae MP-546 = assay: Broth dilution MIC determination (CLSI), K. pneumoniae MP-546; conditions: Klebsiella pneumoniae, MP546; strain MP-546, broth dilution
# K. pneumoniae MP-648 = assay: Broth dilution MIC determination (CLSI), K. pneumoniae MP-648; conditions: Klebsiella pneumoniae, MP648; strain MP-648, broth dilution
# P. aeruginosa MP-3 = assay: Broth dilution MIC determination (CLSI), P. aeruginosa MP-3; conditions: Pseudomonas aeruginosa, MP3; strain MP-3, broth dilution
# A. baumannii MP-15 = assay: Broth dilution MIC determination (CLSI), A. baumannii MP-15; conditions: Acinetobacter baumannii, MP15; strain MP-15, broth dilution; read-out: MIC A. baumanii MP-15
Compound,MIC (S. aureus MP-12),MIC (E. coli MP-4),MIC (K. pneumoniae MP-546),MIC (K. pneumoniae MP-648),MIC (P. aeruginosa MP-3),MIC (A. baumannii MP-15)
"CO[C@]1(C)C[C@@H](C)CN(C)[C@H](C2CN(C(=O)CCCN(C)CC3CC3)C2)COC(=O)C(C)(C)C(=O)[C@H](C)[C@H]1O[C@@H]1O[C@H](C)C[C@H](N(C)C)[C@H]1O [Compound 61, (3R,6R,8R,9R,10R)-3-(1-(4-((cyclopropylmethyl)(methyl)amino)butanoyl)azetidin-3-yl)-9-(((2S,3R,4S,6R)-4-(dimethylamino)-3-hydroxy-6-methyltetrahydro-2H-pyran-2-yl)oxy)-8-methoxy-4,6,8,10,12,12-hexamethyl-1-oxa-4-azacyclotridecane-11,13-dione]",> 32 µg/mL,4 to 32 µg/mL,4 to 32 µg/mL,> 32 µg/mL,> 32 µg/mL,> 32 µg/mL
"CO[C@]1(C)C[C@@H](C)CN(C)[C@@H](C2CCN(CC3CCC3)CC2)COC(=O)C(C)(C)C(=O)[C@H](C)[C@H]1O[C@@H]1O[C@H](C)C[C@H](N(C)C)[C@H]1O [Compound 69, (3S,6R,8R,9R,10R)-3-(1-(cyclobutylmethyl)piperidin-4-yl)-9-(((2S,3R,4S,6R)-4-(dimethylamino)-3-hydroxy-6-methyltetrahydro-2H-pyran-2-yl)oxy)-8-methoxy-4,6,8,10,12,12-hexamethyl-1-oxa-4-azacyclotridecane-11,13-dione]",4 to 32 µg/mL,< 4 µg/mL,< 4 µg/mL,4 to 32 µg/mL,> 32 µg/mL,> 32 µg/mL
"CCN(C)[C@H]1C[C@H]([C@@H]2COC(=O)C(C)(C)C(=O)[C@H](C)[C@@H](O[C@@H]3O[C@H](C)C[C@H](N(C)C)[C@H]3O)[C@](C)(OC)C[C@@H](C)CN2C)C1 [Compound 71, (3R,6R,8R,9R,10R)-9-(((2S,3R,4S,6R)-4-(dimethylamino)-3-hydroxy-6-methyltetrahydro-2H-pyran-2-yl)oxy)-3-((1r,3R)-3-(ethyl(methyl)amino)cyclobutyl)-8-methoxy-4,6,8,10,12,12-hexamethyl-1-oxa-4-azacyclotridecane-11,13-dione]",4 to 32 µg/mL,4 to 32 µg/mL,< 4 µg/mL,< 4 µg/mL,> 32 µg/mL,> 32 µg/mL
"CO[C@]1(C)C[C@@H](C)CN(C)[C@@H](C2CCN(C[C@H]3COC(C)(C)O3)CC2)COC(=O)C(C)(C)C(=O)[C@H](C)[C@H]1O[C@@H]1O[C@H](C)C[C@H](N(C)C)[C@H]1O [Compound 86, (3S,6R,8R,9R,10R)-3-(1-(((S)-2,2-dimethyl-1,3-dioxolan-4-yl)methyl)piperidin-4-yl)-9-(((2S,3R,4S,6R)-4-(dimethylamino)-3-hydroxy-6-methyltetrahydro-2H-pyran-2-yl)oxy)-8-methoxy-4,6,8,10,12,12-hexamethyl-1-oxa-4-azacyclotridecane-11,13-dione]",4 to 32 µg/mL,< 4 µg/mL,< 4 µg/mL,4 to 32 µg/mL,> 32 µg/mL,> 32 µg/mL
"CCCN1C[C@H](C)C[C@@](C)(OC)[C@H](O[C@@H]2O[C@H](C)C[C@H](N(C)C)[C@H]2O)[C@@H](C)C(=O)C(C)(C)C(=O)OC[C@H]1[C@H]1C[C@H](N(C)CC)C1 [Compound 94, (3R,6R,8R,9R,10R)-9-(((2S,3R,4S,6R)-4-(dimethylamino)-3-hydroxy-6-methyltetrahydro-2H-pyran-2-yl)oxy)-3-((1r,3R)-3-(ethyl(methyl)amino)cyclobutyl)-8-methoxy-6,8,10,12,12-pentamethyl-4-propyl-1-oxa-4-azacyclotridecane-11,13-dione]",4 to 32 µg/mL,< 4 µg/mL,< 4 µg/mL,4 to 32 µg/mL,> 32 µg/mL,> 32 µg/mL
"CCCN1C[C@H](C)C[C@@](C)(OC)[C@H](O[C@@H]2O[C@H](C)C[C@H](N(C)C)[C@H]2O)[C@@H](C)C(=O)C(C)(C)C(=O)OC[C@H]1[C@H]1C[C@H](N(C)CC2CC2)C1 [Compound 95, (3R,6R,8R,9R,10R)-3-((1r,3R)-3-((cyclopropylmethyl)(methyl)amino)cyclobutyl)-9-(((2S,3R,4S,6R)-4-(dimethylamino)-3-hydroxy-6-methyltetrahydro-2H-pyran-2-yl)oxy)-8-methoxy-6,8,10,12,12-pentamethyl-4-propyl-1-oxa-4-azacyclotridecane-11,13-dione]",4 to 32 µg/mL,< 4 µg/mL,< 4 µg/mL,4 to 32 µg/mL,> 32 µg/mL,> 32 µg/mL
"CO[C@]1(C)C[C@@H](C)CN(C)[C@H](C2CN(CC3CCCC3)C2)COC(=O)C(C)(C)C(=O)[C@H](C)[C@H]1O[C@@H]1O[C@H](C)C[C@H](N(C)C)[C@H]1O [Compound 103, (3R,6R,8R,9R,10R)-3-(1-(cyclopentylmethyl)azetidin-3-yl)-9-(((2S,3R,4S,6R)-4-(dimethylamino)-3-hydroxy-6-methyltetrahydro-2H-pyran-2-yl)oxy)-8-methoxy-4,6,8,10,12,12-hexamethyl-1-oxa-4-azacyclotridecane-11,13-dione]",4 to 32 µg/mL,< 4 µg/mL,< 4 µg/mL,4 to 32 µg/mL,> 32 µg/mL,4 to 32 µg/mL
"CO[C@]1(C)C[C@@H](C)CN(C)[C@@H](C2CCN(CC3CC3)CC2)COC(=O)C(C)(C)C(=O)[C@H](C)[C@H]1O[C@@H]1O[C@H](C)C[C@H](N(C)C)[C@H]1O [Compound 108, (3S,6R,8R,9R,10R)-3-(1-(cyclopropylmethyl)piperidin-4-yl)-9-(((2S,3R,4S,6R)-4-(dimethylamino)-3-hydroxy-6-methyltetrahydro-2H-pyran-2-yl)oxy)-8-methoxy-4,6,8,10,12,12-hexamethyl-1-oxa-4-azacyclotridecane-11,13-dione]",4 to 32 µg/mL,< 4 µg/mL,< 4 µg/mL,< 4 µg/mL,> 32 µg/mL,> 32 µg/mL
"CO[C@]1(C)C[C@@H](C)CN(C)[C@H](C2CN(C(=O)[C@@H]3CCN(C)C3)C2)COC(=O)C(C)(C)C(=O)[C@H](C)[C@H]1O[C@@H]1O[C@H](C)C[C@H](N(C)C)[C@H]1O [Compound 111, (3R,6R,8R,9R,10R)-9-(((2S,3R,4S,6R)-4-(dimethylamino)-3-hydroxy-6-methyltetrahydro-2H-pyran-2-yl)oxy)-8-methoxy-4,6,8,10,12,12-hexamethyl-3-(1-((R)-1-methylpyrrolidine-3-carbonyl)azetidin-3-yl)-1-oxa-4-azacyclotridecane-11,13-dione]",4 to 32 µg/mL,4 to 32 µg/mL,4 to 32 µg/mL,4 to 32 µg/mL,> 32 µg/mL,> 32 µg/mL
"CO[C@]1(C)C[C@@H](C)CN(C)[C@H](C2CN(CC(C)(C)C)C2)COC(=O)C(C)(C)C(=O)[C@H](C)[C@H]1O[C@@H]1O[C@H](C)C[C@H](N(C)C)[C@H]1O [Compound 114, (3R,6R,8R,9R,10R)-9-(((2S,3R,4S,6R)-4-(dimethylamino)-3-hydroxy-6-methyltetrahydro-2H-pyran-2-yl)oxy)-8-methoxy-4,6,8,10,12,12-hexamethyl-3-(1-neopentylazetidin-3-yl)-1-oxa-4-azacyclotridecane-11,13-dione]",4 to 32 µg/mL,< 4 µg/mL,< 4 µg/mL,4 to 32 µg/mL,> 32 µg/mL,> 32 µg/mL
"CO[C@]1(C)C[C@@H](C)CN(C)[C@H](C2CN(Cc3ccccn3)C2)COC(=O)C(C)(C)C(=O)[C@H](C)[C@H]1O[C@@H]1O[C@H](C)C[C@H](N(C)C)[C@H]1O [Compound 115, (3R,6R,8R,9R,10R)-9-(((2S,3R,4S,6R)-4-(dimethylamino)-3-hydroxy-6-methyltetrahydro-2H-pyran-2-yl)oxy)-8-methoxy-4,6,8,10,12,12-hexamethyl-3-(1-(pyridin-2-ylmethyl)azetidin-3-yl)-1-oxa-4-azacyclotridecane-11,13-dione]",4 to 32 µg/mL,< 4 µg/mL,4 to 32 µg/mL,4 to 32 µg/mL,> 32 µg/mL,> 32 µg/mL
"CO[C@]1(C)C[C@@H](C)CN(C)[C@H](C2CN(Cc3cccnc3)C2)COC(=O)C(C)(C)C(=O)[C@H](C)[C@H]1O[C@@H]1O[C@H](C)C[C@H](N(C)C)[C@H]1O [Compound 119, (3R,6R,8R,9R,10R)-9-(((2S,3R,4S,6R)-4-(dimethylamino)-3-hydroxy-6-methyltetrahydro-2H-pyran-2-yl)oxy)-8-methoxy-4,6,8,10,12,12-hexamethyl-3-(1-(pyridin-3-ylmethyl)azetidin-3-yl)-1-oxa-4-azacyclotridecane-11,13-dione]",4 to 32 µg/mL,< 4 µg/mL,4 to 32 µg/mL,4 to 32 µg/mL,> 32 µg/mL,> 32 µg/mL
"CO[C@]1(C)C[C@@H](C)CN(C)[C@H](C2CN(C(=O)CN(C)C)C2)[C@@H](C)OC(=O)C(C)(C)C(=O)[C@H](C)[C@H]1O[C@@H]1O[C@H](C)C[C@H](N(C)C)[C@H]1O [Compound 120, (2R,3R,6R,8R,9R,10R)-9-(((2S,3R,4S,6R)-4-(dimethylamino)-3-hydroxy-6-methyltetrahydro-2H-pyran-2-yl)oxy)-3-(1-(dimethylglycyl)azetidin-3-yl)-8-methoxy-2,4,6,8,10,12,12-heptamethyl-1-oxa-4-azacyclotridecane-11,13-dione]",> 32 µg/mL,4 to 32 µg/mL,4 to 32 µg/mL,> 32 µg/mL,> 32 µg/mL,> 32 µg/mL
